Values joined by “and” are separate entries in the source; they are usually repeats but may differ in a detail not shown here. Equal values may be shown once.
Tested on: 616215-338-R-J1-PDC complex spheroid growth, % test/control
Assay: Anticancer human tumor 616215-338-R-J1-PDC patient-derived colon adenocarcinoma cell line growth inhibition [Asc]
Details: for viability, T/C: stronger effect = lower value
Protocol: Multicellular complex tumor spheroid response to apoptosis pathway targeting inhibitors Alrizomadlin, Pelcitoclax, and Dasminapant in combination with a variety of drugs and investigational agents in selected tumor cell lines
The MDM2 inhibitor alrizomadlin, the Bcl-2/Bcl-xL inhibitor pelcitoclax, and the IAPs inhibitor dasminapant were evaluated both individually and in combination with standard of care and investigational anticancer small molecules within a complex spheroid model of solid tumors. . Complex spheroids include a stromal component modeled by human endothelial cells (HUVEC) and fibroblasts modeled by human mesenchymal stem cells (MSCs). The concentration ranges selected for each drug and investigational agent were based upon clinically achievable concentrations if the clinical Cmax of the agent was known.
Compounds. The drugs and investigational agents: alrizomadlin (APG-115; NSC831270), pelcitoclax (APG-1252; NSC835773), dasminapant (APG-1387;NSC834197), TAK-243 (NSC785004), copanlisib (NSC809693), olaparib (NSC753686), talazoparib (NSC767125), cobimetinib (NSC 768068), eltanexor (KPT-8602, NSC 794443), abemaciclib (NSC 768073), sotorasib (NSC818433), adagrasib (NSC 831453), MRTX-1133 (NSC 836407), Iadademestat (ORY1001, NSC 806812), and RMC-4630 (NSC839698), were obtained from the NCI Developmental Therapeutics Program Chemical Repository. The FDA-approved anticancer drug set is available from the Developmental Therapeutics Program at https://dtp.cancer.gov/organization/dscb/obtaining/available plates.htm. […] The stock solutions were prepared in dimethyl sulfoxide (DMSO, Sigma-Aldrich, St. Louis, MO, cat. D2650) at 800-fold the tested concentration and stored at -70 degrees C prior to their use. All drugs and investigational agents were tested over a range starting from a high concentration at or near the clinical Cmax and decreasing in half-log increments. If the clinical Cmax for an agent had not been determined, the highest concentration tested was 10 microM.
The patient-derived cancer (PDC) cell lines include five colon adenocarcinomas: 186277-243-T-J2-PDC, 616215-338-R-J1-PDC, 439559-082-T-J2-PDC, 463943-066-T-J2-PDC, and 519858-162-T-J1-PDC; three pancreatic carcinomas: 323965-272-R-J2-PDC, 521955-158-R6-J3-PDC, and 521955-158-R2-J5-PDC; two uterine sarcomas: 327498-152-R-J2-PDC and 993429-296-R-J1-PDC; two rhabdomyosarcomas: 755483-174-R-J1-PDC and 772245-204-R-J1-PDC; two soft tissue sarcomas: 126254-015-R-J1-PDC and 494315-158-R-J1-PDC; two malignant fibrous histiocytomas: 317291-083-R-J1-PDC and 596521-263-R-J1-PDC; two breast carcinomas: 171881-019-R-J1-PDC and 885512-296-R-J2-PDC; and one ovarian carcinoma: 6556581-035-R-J-PDC were obtained from the NCI PDMR, (https://pdmr.cancer.gov). The established cell lines HSSY-2 synovial sarcoma (RRID:CVCL 8719), SYO-1 synovial sarcoma (RRID:CVCL_7146), MPNST malignant peripheral neural sheath tumor were obtained from the Sloan Kettering Institute. The following established cell lines were purchased from the American Type Culture Collection (ATCC, Manassas, VA), Sor the received from the NCI repository:, PANC-1 pancreatic carcinoma (CRL-1469, RRID:CVCL_0480), OVCAR-5 ovarian carcinoma (RRID:CVCL_1628), OVCAR-8 ovarian carcinoma (RRID:CVCL_1629), , MCF-7 breast carcinoma (CRL-12584, RRID:CVCL_0031), MDA-MB-231 breast carcinoma (CRL-12532, RRID:CVCL_0062), NCI-H1876 small cell lung carcinoma (CRL-5902, RRID:CVCL_1503), NCI-H510A small cell lung carcinoma (HTB-184, RRID:CVCL_1565), NCI-H1417 (CRL-5869, RRID:CVCL_1469), and NCI-H196 small cell lung carcinoma (CRL-5823, RRID:CVCL_1509). Dr. Peter Houghton (Greehey Children's Cancer Research Institute, University of Texas Health Science Center, San Antonio, TX) provided Rh-18 rhabdomyosarcoma (RRID:CVCL_1659). Pooled donor human umbilical vein endothelial cells (HUVEC, Lonza, cat. CC-2519) and human mesenchymal stem cells (hMSC, Lonza, cat. PT-2501) were purchased from Lonza (Walkersville, MD).
Cell Culture. […]

[1] = curve of first compound, second compound 0.1 µM
[2] = curve of first compound, second compound 0.316 µM
[3] = curve of first compound, second compound 1 µM
[4] = second compound 0.1 µM, first compound 0.0316 µM
[5] = second compound 0.1 µM, first compound 0.1 µM
[6] = second compound 0.316 µM, first compound 0.0316 µM
[7] = second compound 0.316 µM, first compound 0.1 µM
[8] = second compound 1 µM, first compound 0.0316 µM
[9] = second compound 1 µM, first compound 0.1 µM
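Note: spheroids exposed to agents for seven days before readout.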
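Throughout, for viability, T/C: 100% = DMSO vehicle control viability.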

C=C(F)C(=O)N1CCN(c2nc(OCC3CCCN3C)nc3c2CCN(c2cccc4cccc(Cl)c24)C3)CC1CC#N (centres undefined) + CNC(C)C(=O)NC1CN(S(=O)(=O)c2cccc(S(=O)(=O)N3CCC4CCC(C(=O)NC(c5ccccc5)c5ccccc5)N4C(=O)C(NC(=O)C(C)NC)C3)c2)CCC2CCC(C(=O)NC(c3ccccc3)c3ccccc3)N2C1=O showed an IC50 (curve of first compound, second compound 0.00316 µM) of 175 nM, an IC50 (curve of first compound, second compound 0.01 µM) of 162 nM and an IC50 (curve of first compound, second compound 0.0316 µM) of 155 nM. It also gave an IC50 [1] of 52.6 nM, an IC50 [2] of 243 nM and an IC50 [3] of 131 nM. It also gave a viability, T/C (second compound 0.00316 µM, first compound 0.0316 µM) of 61%, a viability, T/C (second compound 0.00316 µM, first compound 0.1 µM) of 53.5% and a viability, T/C (second compound 0.00316 µM, first compound 0.316 µM) of 43.7%. The viability, T/C (second compound 0.00316 µM, first compound 1 µM) was 23.7%, the viability, T/C (second compound 0.00316 µM, first compound 3.16 µM) was 1.09% and the viability, T/C (second compound 0.00316 µM, first compound 10 µM) was 0.18%. It also gave a viability, T/C (second compound 0.01 µM, first compound 0.0316 µM) of 64.8%, a viability, T/C (second compound 0.01 µM, first compound 0.1 µM) of 53.1% and a viability, T/C (second compound 0.01 µM, first compound 0.316 µM) of 41.4%. The viability, T/C (second compound 0.01 µM, first compound 1 µM) was 26.3%, the viability, T/C (second compound 0.01 µM, first compound 3.16 µM) was 0.82% and the viability, T/C (second compound 0.01 µM, first compound 10 µM) was 2.38%. For the same compound, the viability, T/C (second compound 0.0316 µM, first compound 0.0316 µM) was 65.3%, the viability, T/C (second compound 0.0316 µM, first compound 0.1 µM) was 43.8% and the viability, T/C (second compound 0.0316 µM, first compound 0.316 µM) was 47.5%. For the same compound, the viability, T/C (second compound 0.0316 µM, first compound 1 µM) was 21.2%, the viability, T/C (second compound 0.0316 µM, first compound 3.16 µM) was 0.88% and the viability, T/C (second compound 0.0316 µM, first compound 10 µM) was 0.16%. The viability, T/C [4] was 54.9%, the viability, T/C [5] was 43.8% and the viability, T/C (second compound 0.1 µM, first compound 0.316 µM) was 39.4%. The viability, T/C (second compound 0.1 µM, first compound 1 µM) was 23.5%, the viability, T/C (second compound 0.1 µM, first compound 3.16 µM) was 0.85% and the viability, T/C (second compound 0.1 µM, first compound 10 µM) was 1.36%. It also gave a viability, T/C [6] of 56.5%, a viability, T/C [7] of 58.4% and a viability, T/C (second compound 0.316 µM, first compound 0.316 µM) of 47.7%. It also gave a viability, T/C (second compound 0.316 µM, first compound 1 µM) of 13.9%, a viability, T/C (second compound 0.316 µM, first compound 3.16 µM) of 1.16% and a viability, T/C (second compound 0.316 µM, first compound 10 µM) of 0.18%. It also gave a viability, T/C [8] of 60%, a viability, T/C [9] of 52% and a viability, T/C (second compound 1 µM, first compound 0.316 µM) of 38.8%. It also gave a viability, T/C (second compound 1 µM, first compound 1 µM) of 15.7%, a viability, T/C (second compound 1 µM, first compound 3.16 µM) of 1.42% and a viability, T/C (second compound 1 µM, first compound 10 µM) of 0.21%.

CCN1CCN(Cc2ccc(Nc3ncc(F)c(-c4cc(F)c5nc(C)n(C(C)C)c5c4)n3)nc2)CC1 was tested, and the viability, T/C (compound 0.00316 µM) was 98.2% and 91.4% and 109%, the viability, T/C (compound 0.01 µM) was 97.2% and 108% and 113% and the viability, T/C (compound 0.0316 µM) was 96.5% and 104% and 78.5%. The viability, T/C (compound 0.1 µM) was 102% and 106% and 82.5%, the viability, T/C (compound 0.316 µM) was 122% and 102% and 65.8% and the viability, T/C (compound 1 µM) was 130% and 117% and 34.9%. The IC50 (curve of compound) was > 1000 nM and 543 nM.

Work on Cn1ncnc1[C@H]1c2n[nH]c(=O)c3cc(F)cc(c23)N[C@@H]1c1ccc(F)cc1 + Cc1c(S(C)(=O)=O)c(-c2cc(F)cc(N3CCN(c4ccc(NS(=O)(=O)c5ccc(NC(CCN6CCC(C(=O)OCCCP(=O)(O)O)CC6)CSc6ccccc6)c(S(=O)(=O)C(F)(F)F)c5)cc4)CC3)c2)c(-c2ccc(Cl)cc2)n1C(C)C yielded an IC50 [1] greater than 100 nM, an IC50 [2] greater than 100 nM and an IC50 [3] of 15.4 nM. It also gave an IC50 (curve of first compound, second compound 3.16 µM) of less than 0.316 nM, an IC50 (curve of first compound, second compound 10 µM) of less than 0.316 nM and a viability, T/C (second compound 0.1 µM, first compound 0.000316 µM) of 88.5%. For the same compound, the viability, T/C (second compound 0.1 µM, first compound 0.001 µM) was 104%, the viability, T/C (second compound 0.1 µM, first compound 0.00316 µM) was 85.2% and the viability, T/C (second compound 0.1 µM, first compound 0.01 µM) was 90.1%. It also gave a viability, T/C [4] of 86.2%, a viability, T/C [5] of 84.9% and a viability, T/C (second compound 0.316 µM, first compound 0.000316 µM) of 86.4%. The viability, T/C (second compound 0.316 µM, first compound 0.001 µM) was 87.6%, the viability, T/C (second compound 0.316 µM, first compound 0.00316 µM) was 90.8% and the viability, T/C (second compound 0.316 µM, first compound 0.01 µM) was 85.8%. The viability, T/C [6] was 76.6%, the viability, T/C [7] was 69.3% and the viability, T/C (second compound 1 µM, first compound 0.000316 µM) was 66.9%. It also gave a viability, T/C (second compound 1 µM, first compound 0.001 µM) of 67.8%, a viability, T/C (second compound 1 µM, first compound 0.00316 µM) of 63.7% and a viability, T/C (second compound 1 µM, first compound 0.01 µM) of 54%. It also gave a viability, T/C [8] of 42.7%, a viability, T/C [9] of 32.9% and a viability, T/C (second compound 3.16 µM, first compound 0.000316 µM) of 38.9%. For the same compound, the viability, T/C (second compound 3.16 µM, first compound 0.001 µM) was 39%, the viability, T/C (second compound 3.16 µM, first compound 0.00316 µM) was 27.3% and the viability, T/C (second compound 3.16 µM, first compound 0.01 µM) was 15.8%. For the same compound, the viability, T/C (second compound 3.16 µM, first compound 0.0316 µM) was 9.58%, the viability, T/C (second compound 3.16 µM, first compound 0.1 µM) was 4.09% and the viability, T/C (second compound 10 µM, first compound 0.000316 µM) was 25.9%. The viability, T/C (second compound 10 µM, first compound 0.001 µM) was 20%, the viability, T/C (second compound 10 µM, first compound 0.00316 µM) was 10.4% and the viability, T/C (second compound 10 µM, first compound 0.01 µM) was 4.53%. The viability, T/C (second compound 10 µM, first compound 0.0316 µM) was 2.52% and the viability, T/C (second compound 10 µM, first compound 0.1 µM) was 1.65%.

Source: PubChem BioAssay AID1963448 (Molecular Pharmacology Branch, DTP, NCI, 2024)
